Experimental data as given in paper PMC12113339, “Miltefosine analogues with comparable antileishmanial activity and significantly reduced macrophage cytotoxicity” (Memórias do Instituto Oswaldo Cruz, 2025).
Read-outs that look alike come from different tables or passages of the source.

Experiments:
[1] = test system: GFP-labelled L. amazonensis amastigotes within J774.A1 macrophages; assay: microbe, parasite or virus in culture; assay type: cell-based, Leishmania amazonensis; conditions: for Minimum concentration required to significantly reduce the percentage of macrophages infected with GFP-expressing amastigotes / Minimum concentration required to significantly decrease the mean fluorescence intensity: 24 h of treatment; for Minimum concentration required to significantly reduce the percentage of macrophages infected with GFP-expressing amastigotes: % GFP+ cells; for Minimum concentration required to significantly decrease the mean fluorescence intensity: MFI; for SI (CC50/EC50), amastigotes: CC50 J774A.1 / EC50 amastigotes; for EC50: Leishmania amazonensis, intracellular amastigotes in J774.A1, 24 h treatment, % infected cells, read-out: EC50 ± SD, amastigotes
Description: J774.A1 macrophage infection - GFP-labelled L. amazonensis was cultivated in Grace’s insect medium supplemented as described above. The GFP-labelled parasites were selected using 30 μg/mL hygromycin B.[21] J774.A1 macrophages were cultured in RPMI-1640 medium supplemented with 10% FCS, 2 mM L-glutamine, 11 mM sodium bicarbonate, 100 U/mL penicillin, and 100 µg/mL streptomycin. A sample with 4 x 10^6 cells/mL was infected with GFP-L. amazonensis (five parasites/cell) from six-day cultures for 24 h. Following infection, the cells were washed with 1x phosphate-buffered saline (PBS) to remove non-internalised parasites and cultured for an additional 24 h in the presence of MIL or its analogues at different concentrations (7.5-240 μM).
After cooling to ~4 °C, samples were collected by mechanical harvesting of adherent cells, washed twice with 1x PBS, and fixed with 1% paraformaldehyde for flow cytometry analysis using a BD Accuri™ C6 Flow Cytometry instrument (BD Bioscience, San Jose, CA, USA). Macrophages were selected by forward versus side scatter (FSC vs SSC). The data were analysed using FCS Express software (De Novo Software^TM, Glendale, CA, USA). The percentage of cells expressing GFP^+ (% infected cells) and mean fluorescence intensity (estimated amount of internalised parasites) were evaluated. The mean EC50 values were determined based on the best-fit sigmoidal curve plotted for infection percentage versus compound concentration, considering the maximum and minimum percentages of infected cells.

[2] = test system: Leishmania amazonensis promastigotes; assay: microbe, parasite or virus in culture; assay type: cell-based; conditions: for SI (CC50/EC50), promastigotes: CC50 J774A.1 / EC50 promastigotes; for EC50: Leishmania amazonensis
Description: (§1) Cells - Leishmania (L.) amazonensis (MHOM/BR/75/Josefa) and green fluorescent protein (GFP)-labelled L. amazonensis (IFLA/BR/67/PH8) reference strains in their promastigote form were grown in 24-well microtiter plates containing 2 mL of Grace’s insect medium supplemented with 20% heat-inactivated FCS, 2 mM L-glutamine, 100 U/mL penicillin, and 100 µg/mL streptomycin, as previously described.[11] ^, [12] The promastigotes were collected for the experiments when the highest proportion of infective metacyclics was reached (6th day of culture). The J774.A1 murine macrophage cell line was obtained from the cell bank of Rio de Janeiro (NCE/UFRJ). Macrophages were cultured in RPMI-1640 medium supplemented with 10% FCS, 2 mM L-glutamine, 100 U/mL penicillin, and 100 μg/mL streptomycin at 36.5 °C in a humidified incubator containing 5% CO2.
(§2) In vitro assays of antileishmanial activity and macrophage cytotoxicity - Parasites at different cell concentrations (5 x 10^6, 1 x 10^7, 1 x 10^8, and 1 x 10^9 cells/mL), or J774.A1 macrophages at 1 x 10^6 cells/mL, were treated with increasing concentrations of MIL or its analogues, TC387, TC388, and TC437 (Fig. 1), which were initially diluted in an ethanol/DMSO mixture (1:1, v/v) at 25 or 250 mg/mL and then diluted in culture medium supplemented with 10% FCS. Promastigote or macrophage samples (100 µL) containing six different concentrations of the compounds (5-160 μM for promastigotes and 200-6,400 μM for macrophages) were prepared in 96-well microtiter plates and incubated for 24 h at 26 °C for promastigotes or 36.5 °C for macrophages. Cell viability was quantified by measuring the reduction of MTT to formazan by mitochondrial reductases. Formazan absorbance was read on the enzyme-linked immunosorbent assay (ELISA) reader at 550 nm, and the half maximal effective concentration (EC50) or half-maximal cytotoxic concentration (CC50) values were determined based on the best fit of the sigmoidal curve on the absorbance data versus the compound concentrations.

[3] = test system: amastigotes internalised within J774.A1 macrophages; set-up: method as in Scariot et al. 13; conditions: ref Scariot et al. 13; cited from earlier work
[4] = test system: plasma membranes of Leishmania amazonensis promastigotes; assay: Best fit of eq. 3 to EC50 versus cell concentration (biophysical parameters); assay type: cell-based; conditions: for EC50: Leishmania amazonensis, read-out: cw50, concentration in the aqueous phase that inhibits parasite growth by half; for cm50, concentration in the membrane that inhibits parasite growth by half: from KM/W and cw50
From the text: In cell suspension assays, the concentration of lipophilic compounds within the membrane can exceed that in the aqueous medium by over 10,000-fold (Log KM/W > 4). In a well-diluted cell suspension, the quantity of compound associated with the membrane can be negligible due to the relatively small membrane volume; consequently, the compound predominantly resides in the aqueous phase, rendering its EC50 value effectively equivalent to its concentration in that phase, denoted as cw50. However, as cell concentration increases, the enhanced membrane volume results in a significant elevation of the EC50 compared to cw50. The equation that describes the variation of MIL EC50 values in relation to cell concentration in the assay has been derived and is expressed as follows:[10] ^, [11]
EC50=[(Vmc. cc)^-1+ KM/W/ (Vmc . cc)^-1+1)] cw50 (3)
Where Vmc is the estimated cell membrane volume for an L. amazonensis promastigote, previously estimated as 8.17 x 10^-13 mL,[11] and cc is the number of cells per mL. The parameters KM/W and cw50 are covariant in eq. 3, and their values can be determined as best-fit parameters of eq. For very dilute samples, the plasma membrane content is small, and the EC50 and cw50 values are practically the same; assuming in eq. 3 that (Vmc . cc)^-1 >> KM/W, the EC50 = ~cw50. For high concentrations of cells, a remarkable amount of the compound goes to the membrane, and the EC50 value is much higher than the cw50 value. The cm50 value can also be determined from the […] relationship.

[5] = Macrophage cytotoxicity (MTT cell viability); assay type: cell-based, murine; conditions: mouse, J774.A1 macrophages, J774A.1 cells
Description: as §1, §2

[6] = test system: L. amazonensis promastigotes; set-up: method as in Scariot et al. 13; conditions: ref Scariot et al. 13; cited from earlier work
[7] = Haemolytic potential in whole blood; assay type: cell-based, human; conditions: human, whole blood reconstituted from plasma and blood cells, 24 h at 7 °C, read-out: Whole blood - % haemolysis
Description: (§3) Haemolytic potential in whole blood and PBS - Blood was collected from a university blood bank, adhering to an approved protocol by the Ethics Committee for Human and Animal Medical Research at Hospital das Clínicas, Universidade Federal de Goiás (CAAE: 81316417.1.0000.5078). To evaluate the haemolytic potential of MIL and its analogues (TC387, TC388, and TC437) in whole blood, plasma was separated by centrifugation at 1800 × g for 10 min at 4 °C. Next, 58 µL of plasma samples containing different concentrations of the compounds were prepared (in this case the compounds were diluted directly in blood plasma to final concentrations in the range of 2.5-12.5 mM), and 42 µL of the blood cells (100%) were added to each sample to reconstitute the whole blood. Samples were incubated for 24 h at 7 ± 1 °C, and several agitations were made in this period. After incubation, 1.4 mL PBS was added to each sample, and the tubes were centrifuged (3500 x g for 10 min). The percentage of haemolysis was determined based on the absorbance of haemoglobin in the supernatant at 540 nm relative to the sample without treatment (control). The compound concentration required for 50% haemolysis (HC50) was calculated by fitting the percentage of haemolysis versus compound concentration data to a sigmoidal curve.

[8] = Haemolytic potential in PBS; assay type: cell-based; conditions: human, washed erythrocytes in PBS, haematocrit 2%, 2 h at 36.5 °C, read-out: Erythrocytes in PBS - % haemolysis; for hemolysis at 2 h, 6.6 mM: 6.6 mM (22 times 300 µM)
Description: To assess the haemolytic potential in PBS, blood was initially diluted threefold in PBS and centrifuged at 800 × g for 10 min at 4 °C. Plasma and white blood cells were removed, and the remaining cells were resuspended in PBS. Erythrocytes were washed twice in PBS, discarding the supernatant after centrifugation. Erythrocytes were then added to a micellar suspension of the compounds at various concentrations in PBS (0.3-10 mM), achieving a final haematocrit of 2%. Samples were incubated for 2 h at 36.5 ± 1 °C, and haemolysis percentages and HC50 values were determined as described above.

whole blood = assay: Haemolytic potential in whole blood; assay type: cell-based, human; conditions: 7.5 mM, 24 h at 7 °C
Description: as §3

[9] = 24 h, read-out: EC50 ± SD, promastigotes, 24 h at 26 °C, MTT
[10] = best-fit parameter of eq. 3, equivalent to EC50 for diluted samples

Row | Structure (SMILES) | Minimum concentration required to significantly reduce the percentage of macrophages infected with GFP-expressing amastigotes [1] [µM] | Minimum concentration required to significantly decrease the mean fluorescence intensity [1] [µM] | SI (CC50/EC50), amastigotes [1] | EC50 [1] [µM] | SI (CC50/EC50), promastigotes [2] | EC50 [2, 9] [µM] | EC50 [4, 10] [µM] | cm50, concentration in the membrane that inhibits parasite growth by half [4] | CC50 at 24 h [5] [µM] | hemolysis at 24 h, 10 mM [7] [%] | hemolysis at 2 h, 3.3 mM [8] [%] | hemolysis at 2 h, 10 mM [8] [%] | hemolysis at 24 h, 7.5 mM [7] [%] | hemolysis at 2 h, 6.6 mM [8] [%] | further results
1 | CCCCCCCCCCCCCCCCOP(=O)([O-])OCC[N+](C)(C)C [MIL, hexadecylphosphocholine, reference compound] | 15 | 15 | 5 | 17 ± 3 | around 6 | 13 ± 3 | 9.4 ± 1.2 | 0.81 ± 0.07 (B) M | 77 ± 23 |  |  |  |  |  | SI (CC50/EC50), promastigotes ([2]; listed as Miltefosine): 6; EC50 ([2]; read-out: EC50, promastigotes, cell concentration 1 x 10^7 parasites/mL): ~13 µM; EC50 ([2]; read-out: EC50, promastigotes, cell concentration 1 x 10^9 parasites/mL): ~660 µM; IC50 [3]: 2 µM; IC50 [6]: 21 µM
2 | COC(=O)c1c(CCCCCCCCOP(=O)([O-])OCC[N+](C)(C)C)cccc1OC [TC388] | 7.5 | 7.5 |  | 10 ± 2 | 42 | 39 ± 11 | 38.9 ± 3.8 | 0.50 ± 0.13 (A) M | 1630 ± 404 | 14.5 | 8.5 | 25.3 |  |  | hemolysis at 24 h, 12.5 mM ([7]; 12.5 mM): 24.2 ± 6.4%
3 | COc1cc(CCCCCCCCOP(=O)([O-])OCC[N+](C)(C)C)cc(OC)c1 [TC437] | 15 | 7.5 | 43 | 16 ± 3 | 29 | 24 ± 7 |  | 0.56 ± 0.11 (A) M | 692 ± 212 | 92.5 | 29.8 | 65.4 | 40.6 ± 7.4 | < 50 | EC50 [4]: 22.8 ± 3.7 µM
4 | COc1cccc(CCCCCCCCOP(=O)([O-])OCC[N+](C)(C)C)c1 [TC387] | 7.5 | 7.5 | 80 | 12 ± 3 | 34 | 27 ± 9 | 27.2 ± 2.9 | 0.53 ± 0.09 (A) M | 956 ± 277 | 75.3 | 26.2 | 60.4 | 20.5 | < 50 | Whole blood - % haemolysis (whole blood): 22.5 ± 3.7%
